Assay results reported in patent US20230312578A1, “6H-INDOLO[2,3-B]QUINOXALINE DERIVATIVES USEFUL IN THERAPY” (Vironova Medical AB, priority 2020, published 2023).
Like-named read-outs stand apart in the source and are kept apart here.

Tests used:
Assay type in all cases: cell-based
EKVX = assay: Human tumor cell line growth assay (SRB); settings: Homo sapiens, NSCLC, 48 h
[1] = Human tumor cell line growth assay (SRB); settings: human, HT29 cells (colon), HT29, 48 h, read-out: LC50
HT29 = assay: Human tumor cell line growth assay (SRB); settings: Homo sapiens, HT-29; Colon, HT29, 48 h
KM12 = assay: Human tumor cell line growth assay (SRB); settings: Homo sapiens; Colon, KM12, 48 h
ACHN = assay: Human tumor cell line growth assay (SRB); settings: Renal, 48 h; for CC50: read-out: LC50 (the source's name)
[2] = Human tumor cell line growth assay (SRB); settings: human, SNB-19 cells (CNS), SNB-19, 48 h, read-out: LC50
SNB-19 = assay: Human tumor cell line growth assay (SRB); settings: Homo sapiens; CNS, SNB-19, 48 h
[3] = Human tumor cell line growth assay (SRB); settings: human, UACC-62 cells (melanoma), UACC-62, 48 h, read-out: LC50
UACC-62 = assay: Human tumor cell line growth assay (SRB); settings: Homo sapiens; Melanoma, UACC-62, 48 h
[4] = Human tumor cell line growth assay (SRB); settings: human, COLO 205 cells (colon), COLO 205, 48 h, read-out: LC50
COLO 205 = assay: Human tumor cell line growth assay (SRB); settings: Homo sapiens; Colon, COLO 205, 48 h
[5] = Human tumor cell line growth assay (SRB); settings: human, NCI-H522 cells (NSCLC), NCI-H522, 48 h
NCI-H522 = assay: Human tumor cell line growth assay (SRB); settings: Homo sapiens; NSCLC, NCI-H522, 48 h
UO-31 = assay: Human tumor cell line growth assay (SRB); settings: Renal, UO-31, 48 h; for CC50: read-out: LC50 (the source's name)
OVCAR-4 = assay: Human tumor cell line growth assay (SRB); settings: Homo sapiens; Ovarian, OVCAR-4, 48 h
BT-549 = assay: Human tumor cell line growth assay (SRB); settings: Breast, BT-549, 48 h; for CC50: read-out: LC50 (the source's name)
[6] = Human tumor cell line growth assay (SRB); settings: human, NCI-H322M cells (NSCLC), read-out: LC50
NCI-H322M = assay: Human tumor cell line growth assay (SRB); settings: Homo sapiens, NSCLC, 48 h
SK-MEL-28 = assay: Human tumor cell line growth assay (SRB); settings: Homo sapiens; Melanoma, SK-MEL-28, 48 h
PC-3 = assay: Human tumor cell line growth assay (SRB); settings: Prostate, PC-3, 48 h; for CC50: read-out: LC50 (the source's name)
SF-268 = assay: Human tumor cell line growth assay (SRB); settings: Homo sapiens; CNS, SF-268, 48 h
[7] = Human tumor cell line growth assay (SRB); settings: human, SF-268 cells (CNS), SF-268, 48 h
[8] = Human tumor cell line growth assay (SRB); settings: human, SF-295 cells (CNS), SF-295, 48 h, read-out: LC50
SF-295 = assay: Human tumor cell line growth assay (SRB); settings: Homo sapiens; CNS, SF-295, 48 h
CCRF-CEM = assay: Human tumor cell line growth assay (SRB); settings: Leukemia, 48 h; for CC50: read-out: LC50 (the source's name)
[9] = Human tumor cell line growth assay (SRB); settings: human, MOLT-4 cells (leukemia), MOLT-4, 48 h, read-out: LC50
MOLT-4 = assay: Human tumor cell line growth assay (SRB); settings: Homo sapiens; Leukemia, MOLT-4, 48 h
NCI/ADR-RES = assay: Human tumor cell line growth assay (SRB); settings: Ovarian, 48 h; for CC50: read-out: LC50 (the source's name)
A549/ATCC = assay: Human tumor cell line growth assay (SRB); settings: Homo sapiens, NSCLC, 48 h
SF-539 = assay: Human tumor cell line growth assay (SRB); settings: Homo sapiens; CNS, SF-539, 48 h
[10] = Human tumor cell line growth assay (SRB); settings: human, HCT-15 cells (colon), HCT-15, 48 h
HCT-15 = assay: Human tumor cell line growth assay (SRB); settings: Homo sapiens; Colon, HCT-15, 48 h
[11] = Human tumor cell line growth assay (SRB); settings: human, EKVX cells (NSCLC), read-out: LC50
[12] = Human tumor cell line growth assay (SRB); settings: human, KM12 cells (colon), KM12, 48 h, read-out: LC50
[13] = Human tumor cell line growth assay (SRB); settings: human, OVCAR-4 cells (ovarian), OVCAR-4, 48 h, read-out: LC50
[14] = Human tumor cell line growth assay (SRB); settings: human, SK-MEL-28 cells (melanoma), SK-MEL-28, 48 h, read-out: LC50
[15] = Human tumor cell line growth assay (SRB); settings: human, A549/ATCC cells (NSCLC), read-out: LC50
[16] = Human tumor cell line growth assay (SRB); settings: human, SF-539 cells (CNS), SF-539, 48 h, read-out: LC50

## Cc1cc2nc3c4cc(O)ccc4n(CCN(C)C)c3nc2cc1C [JBD-139, 6-(2-(dimethylamino)ethyl)-2,3-dimethyl-6H-indolo [2,3-b]quinoxalin-9-ol]
EKVX
  GI50: 1100 nM
[1]
  CC50 at 48 h: > 100000 nM
HT29
  GI50: 379 nM
KM12
  GI50: 512 nM
ACHN
  GI50: 307 nM
[2]
  CC50 at 48 h: > 100000 nM
SNB-19
  GI50: 423 nM
[3]
  CC50 at 48 h: 6370 nM
UACC-62
  GI50: 479 nM
[4]
  CC50 at 48 h: > 100000 nM
COLO 205
  GI50: 470 nM
[5]
  LC50 at 48 h: > 100000 nM
NCI-H522
  GI50: 390 nM
UO-31
  GI50: 1390 nM
  CC50: 4180 nM
OVCAR-4
  GI50: 882 nM
BT-549
  GI50: 1840 nM
  CC50: > 100000 nM
[6]
  CC50 at 48 h: > 100000 nM
NCI-H322M
  GI50: 516 nM
SK-MEL-28
  GI50: 1500 nM
PC-3
  GI50: 491 nM
SF-268
  GI50: 822 nM
[7]
  LC50 (50% lethal concentration) at 48 h: > 100000 nM
[8]
  CC50 at 48 h: > 100000 nM
SF-295
  GI50: 756 nM
CCRF-CEM
  GI50: 468 nM
  CC50: > 100000 nM
[9]
  CC50 at 48 h: > 100000 nM
MOLT-4
  GI50: 359 nM
NCI/ADR-RES
  GI50: 436 nM
  CC50: > 100000 nM
A549/ATCC
  GI50: 358 nM
SF-539
  GI50: 422 nM
[10]
  LC50 (concentration killing 50% of cells) at 48 h: > 100000 nM
HCT-15
  GI50: 405 nM

## COc1ccc2c(c1)c1nc3cc(C)c(C)cc3nc1n2CCN(C)C [JBA-094, 2-(9-methoxy-2,3-dimethyl-6H-indolo[2,3-b]quinoxalin-6-yl)-N,N-dimethylethanamine]
[11]
  CC50 at 48 h: 6800 nM
EKVX
  GI50: 1280 nM
[1]
  CC50 at 48 h: 5720 nM
HT29
  GI50: 369 nM
[12]
  CC50 at 48 h: 6360 nM
KM12
  GI50: 1050 nM
ACHN
  GI50: 358 nM
  CC50: 3960 nM
[2]
  CC50 at 48 h: 6340 nM
SNB-19
  GI50: 719 nM
[3]
  CC50 at 48 h: 6700 nM
UACC-62
  GI50: 898 nM
COLO 205
  GI50: 561 nM
[5]
  LC50 at 48 h: > 100000 nM
NCI-H522
  GI50: 515 nM
UO-31
  GI50: 273 nM
  CC50: 4930 nM
[13]
  CC50 at 48 h: 5560 nM
OVCAR-4
  GI50: 1020 nM
BT-549
  GI50: 1650 nM
  CC50: 7090 nM
[6]
  CC50 at 48 h: 6410 nM
NCI-H322M
  GI50: 778 nM
[14]
  CC50 at 48 h: 6760 nM
SK-MEL-28
  GI50: 1790 nM
PC-3
  GI50: 1120 nM
  CC50: 5840 nM
SF-268
  GI50: 1330 nM
[7]
  LC50 (50% lethal concentration) at 48 h: 8230 nM
[8]
  CC50 at 48 h: 5130 nM
SF-295
  GI50: 1110 nM
CCRF-CEM
  GI50: 795 nM
  CC50: > 100000 nM
[9]
  CC50 at 48 h: 96000 nM
MOLT-4
  GI50: 420 nM
NCI/ADR-RES
  GI50: 588 nM
[15]
  CC50 at 48 h: 7970 nM
A549/ATCC
  GI50: 482 nM
[16]
  CC50 at 48 h: 5200 nM
SF-539
  GI50: 663 nM
[10]
  LC50 (concentration killing 50% of cells) at 48 h: 5570 nM
HCT-15
  GI50: 410 nM

## Cc1cc2nc3c4ccccc4n(CCN(C)C)c3nc2cc1C [B220, 2-(2,3-dimethyl-6H-indolo [2,3-b]quinoxalin-6-yl)-N,N-dimethylethanamine, reference compound]
[11]
  CC50 at 48 h: 83900 nM
EKVX
  GI50: 2230 nM
[1]
  CC50 at 48 h: 45300 nM
HT29
  GI50: 760 nM
[12]
  CC50 at 48 h: 38600 nM
KM12
  GI50: 1930 nM
ACHN
  GI50: 555 nM
  CC50: 42200 nM
[2]
  CC50 at 48 h: 68600 nM
SNB-19
  GI50: 2330 nM
[3]
  CC50 at 48 h: 5580 nM
UACC-62
  GI50: 1430 nM
[4]
  CC50 at 48 h: 41000 nM
COLO 205
  GI50: 1290 nM
[5]
  LC50 at 48 h: > 100000 nM
NCI-H522
  GI50: 673 nM
UO-31
  GI50: 726 nM
  CC50: 91300 nM
[13]
  CC50 at 48 h: > 100000 nM
OVCAR-4
  GI50: 2550 nM
BT-549
  GI50: 2070 nM
  CC50: 28700 nM
[6]
  CC50 at 48 h: 31200 nM
NCI-H322M
  GI50: 1860 nM
[14]
  CC50 at 48 h: 9450 nM
SK-MEL-28
  GI50: 2090 nM
PC-3
  GI50: 2010 nM
  CC50: > 100000 nM
SF-268
  GI50: 1450 nM
[7]
  LC50 (50% lethal concentration) at 48 h: 28000 nM
[8]
  CC50 at 48 h: 42500 nM
SF-295
  GI50: 1390 nM
CCRF-CEM
  GI50: 1990 nM
  CC50: > 100000 nM
[9]
  CC50 at 48 h: 95100 nM
MOLT-4
  GI50: 555 nM
NCI/ADR-RES
  GI50: 1390 nM
  CC50: 90200 nM
[15]
  CC50 at 48 h: > 100000 nM
A549/ATCC
  GI50: 1280 nM
[16]
  CC50 at 48 h: 15000 nM
SF-539
  GI50: 1830 nM
[10]
  LC50 (concentration killing 50% of cells) at 48 h: > 100000 nM
HCT-15
  GI50: 1770 nM
